The structures appear in SMILES notation. Counter-ions that a name gives are not always drawn. Like-named read-outs stand apart in the source and are kept apart here.

Consider 27 compounds from patent US20070049593A1 (priority 2004, published 2007).

The assay deals with T1, HCV polymerase (Hepatitis C virus genotype 1b, UniProt P26663).
T1 construct: a region encoding NS5B (J Virol 1991 March, 65(3), 1105-13, 544 amino acids after deletion of 47 amino acids on the C-terminal); 6xHis (C); made in house; host or cells: Escherichia coli
Put plainly: biochemical. Also noted: species or system HCV BK strain. An outline of the steps: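 Recombinant HCV BK-strain NS5B (C-terminal 47 aa deleted, His6-tagged, E. coli), 0.5 μg/ml, run with 5 μg/ml in vitro-transcribed RNA template (polyU/3′X), ATP/GTP/CTP 50 μM, UTP 2 μM plus [3H]UTP, pH 7.5, 25° C, 90 min. TCA-precipitated RNA counted by scintillation; IC50 from activity with vs without compound.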

T1 sequence (P26663 2420-2963): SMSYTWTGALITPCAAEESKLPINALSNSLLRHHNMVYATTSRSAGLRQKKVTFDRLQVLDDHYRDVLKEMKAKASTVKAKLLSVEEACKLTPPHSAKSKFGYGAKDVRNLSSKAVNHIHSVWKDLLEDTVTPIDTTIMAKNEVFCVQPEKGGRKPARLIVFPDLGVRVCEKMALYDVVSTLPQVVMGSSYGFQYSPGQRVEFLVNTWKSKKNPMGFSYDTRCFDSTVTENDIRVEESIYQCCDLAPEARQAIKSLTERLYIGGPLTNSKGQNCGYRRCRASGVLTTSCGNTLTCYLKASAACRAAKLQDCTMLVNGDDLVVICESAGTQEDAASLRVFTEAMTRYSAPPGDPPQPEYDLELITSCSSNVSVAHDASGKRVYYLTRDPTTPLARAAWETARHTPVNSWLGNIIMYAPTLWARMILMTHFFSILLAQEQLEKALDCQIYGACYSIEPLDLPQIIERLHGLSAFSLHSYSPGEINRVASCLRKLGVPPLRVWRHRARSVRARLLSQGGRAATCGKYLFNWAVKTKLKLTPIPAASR

What is called IC50 is the concentration that gives 50% inhibition. On to `COc1ccc(C[C@H](NC(=O)c2ccc3c(C4CCCCC4)c4n(c3c2)CCOc2ccccc2-4)C(=O)O)cc1` [Example 2-237, (S)-2-[(12-cyclohexyl-6,7-dihydro-5-oxa-7a-azadibenzo[a,e]azulene-9-carbonyl)amino]-3-(4-methoxyphenyl)propionic acid], for which the IC50 is < 100 nM. Still for that read-out and setting: for `CC(C)(NC(=O)c1ccc2c(C3CCCCC3)c3n(c2c1)CCOc1ccccc1-3)c1nc2ccccc2n1CC(=O)O` [Example 2-312, (2-{1-[(12-cyclohexyl-6,7-dihydro-5-oxa-7a-azadibenzo[a,e]azulene-9-carbonyl)amino]-1-methylethyl}benzimidazol-1-yl)acetic acid] the value was < 100 nM; for `CC(C)(NC(=O)c1ccc2c(C3CCCCC3)c3n(c2c1)CCOc1ccccc1-3)C(=O)Nc1cccc(C(=O)O)c1` [Example 2-201, 3-{2-[(12-cyclohexyl-6,7-dihydro-5-oxa-7a-azadibenzo[a,e]azulene-9-carbonyl)amino]-2-methylpropionylamino}benzoic acid], < 100 nM. Turning to `O=C(O)c1ccc(N[C@@H]2CCCC[C@H]2NC(=O)c2ccc3c(C4CCCCC4)c4n(c3c2)CCOc2ccccc2-4)cc1` [Example 2-153, 4-{(1R,2R)-2-[(12-cyclohexyl-6,7-dihydro-5-oxa-7a-azadibenzo[a,e]azulene-9-carbonyl)amino]cyclohexylamino}benzoic acid], the 50% inhibitory concentration (IC50) was < 100 nM. Consider `CCN1CCC(CN2CCn3c(c(C4CCCCC4)c4ccc(C(=O)O)cc43)-c3ccccc32)CC1` [Example 1-133, 13-cyclohexyl-5-(1-ethylpiperidin-4-ylmethyl)-6,7-dihydro-5H-benzo[5,6][1,4]diazepino[7,1-a]indole-10-carboxylic acid dihydrochloride], for which, where the note is “read-out: HCV polymerase inhibitory activity IC50, 25° C., 90 min, [5,6-3H]UTP incorporation into RNA”, the IC50 was < 100 nM. `CC(C)(NC(=O)c1ccc2c(C3CCCCC3)c3n(c2c1)CCOc1ccccc1-3)C(=O)N1CCCC(O)C1` (stereo not drawn) [Example 2-240, N-[2-(3-hydroxypiperidin-1-yl)-1,1-dimethyl-2-oxoethyl]-12-cyclohexyl-6,7-dihydro-5-oxa-7a-azadibenzo[a,e]azulene-9-carboxamide]: the half-inhibitory concentration (IC50) was < 100 nM. Same read-out and setting: with `CN(C)C(=O)N1CCn2c(c(C3CCCCC3)c3ccc(C(=O)O)cc32)-c2ccccc21` [Example 1-31, 13-cyclohexyl-5-dimethylcarbamoyl-6,7-dihydro-5H-benzo[5,6][1,4]diazepino[7,1-a]indole-10-carboxylic acid] the figure was 100 to 1000 nM; with `CC(C)N1CCn2c(c(C3CCCCC3)c3ccc(C(=O)O)cc32)-c2ccccc21` [Example 1-23, 13-cyclohexyl-5-isopropyl-6,7-dihydro-5H-benzo[5,6][1,4]diazepino[7,1-a]indole-10-carboxylic acid monohydrochloride], < 100 nM. On the same count and under the same terms, with `Cc1ccc2c(c1)N(CCN1CCCCC1)CCn1c-2c(C2CCCCC2)c2ccc(S(N)(=O)=O)cc21` [Example 1-507, 13-cyclohexyl-3-methyl-5-[2-(piperidin-1-yl)ethyl]-6,7-dihydro-5H-benzo[5,6][1,4]diazepino[7,1-a]indole-10-sulfonamide dihydrochloride] the figure was 100 to 1000 nM. On the same count and under the same terms, with `CC(C)(CN[C@H]1CC[C@H](O)CC1)NC(=O)c1ccc2c(C3CCCCC3)c3n(c2c1)CCOc1ccccc1-3` [Example 2-239, N-[2-(trans-4-hydroxycyclohexylamino)-1,1-dimethylethyl]-12-cyclohexyl-6,7-dihydro-5-oxa-7a-azadibenzo[a,e]azulene-9-carboxamide] the figure was 100 to 1000 nM; with `CC1CCCCN1C(=O)CN1CCn2c(c(C3CCCCC3)c3ccc(C(=O)O)cc32)-c2ccccc21` (stereo not drawn) [Example 1-137, 13-cyclohexyl-5-[2-(2-methylpiperidin-1-yl)-2-oxoethyl]-6,7-dihydro-5H-benzo[5,6][1,4]diazepino[7,1-a]indole-10-carboxylic acid], < 100 nM. In the case of `CC(=O)N1CCC(NC(=O)c2ccc3c(C4CCCCC4)c4n(c3c2)CCOc2ccccc2-4)(C(=O)O)CC1` [Example 2-181, 1-acetyl-4-[(12-cyclohexyl-6,7-dihydro-5-oxa-7a-azadibenzo[a,e]azulene-9-carbonyl)amino]piperidine-4-carboxylic acid], the IC50 is < 100 nM. The same measure, in the same setting: with `CCOc1ccc2c(c1)OCCn1c-2c(C2CCCCC2)c2ccc(C(=O)NC3(C(=O)Nc4cccc(/C=C/C(=O)O)c4)CCC3)cc21` [Example 2-551, (E)-3-[3-({1-[(12-cyclohexyl-3-ethoxy-6,7-dihydro-5-oxa-7a-azadibenzo[a,e]azulene-9-carbonyl)amino]cyclobutanecarbonyl}amino)phenyl]acrylic acid] the figure was < 100 nM; with `COC(=O)[C@H](Cc1ccc(O)cc1)NC(=O)c1ccc2c(C3CCCCC3)c3n(c2c1)CCOc1cc(OC)ccc1-3` [Example 2-373, methyl (S)-2-[(12-cyclohexyl-3-methoxy-6,7-dihydro-5-oxa-7a-azadibenzo[a,e]azulene-9-carbonyl)amino]-3-(4-hydroxyphenyl)propionate], < 100 nM. On the same count and under the same terms, with `O=C(O)c1ccc2c(C3CCCCC3)c3n(c2c1)CCOc1cc(Oc2ccccc2Cl)ccc1-3` [Example 2-30, 3-(2-chlorophenoxy)-12-cyclohexyl-6,7-dihydro-5-oxa-7a-azadibenzo[a,e]azulene-9-carboxylic acid] the figure was < 100 nM; with `COC1CCCN(C(=O)CN2CCn3c(c(C4CCCCC4)c4ccc(C(=O)O)cc43)-c3ccccc32)C1` (stereo not drawn) [Example 1-125, 13-cyclohexyl-5-[2-(3-methoxypiperidin-1-yl)-2-oxoethyl]-6,7-dihydro-5H-benzo[5,6][1,4]diazepino[7,1-a]indole-10-carboxylic acid monohydrochloride], < 100 nM. With `COCc1ccccc1-c1cccc2c1OCCn1c-2c(C2CCCCC2)c2ccc(C(=O)O)cc21` [Example 2-327, 12-cyclohexyl-4-(2-methoxymethylphenyl)-6,7-dihydro-5-oxa-7a-azadibenzo[a,e]azulene-9-carboxylic acid], the IC50 was < 100 nM. Still for that read-out and setting: with `COC(=O)NCCOc1ccc2c(c1)OCCn1c-2c(C2CCCCC2)c2ccc(C(=O)O)cc21` [Example 2-36, 12-cyclohexyl-3-[2-(methoxycarbonylamino)ethoxy]-6,7-dihydro-5-oxa-7a-azadibenzo[a,e]azulene-9-carboxylic acid] the figure was < 100 nM; with `CNC(=O)/C=C/c1ccc(NC(=O)C2(NC(=O)c3ccc4c(C5CCCCC5)c5n(c4c3)CCOc3cc(OC)ccc3-5)CCC2)cc1` [Example 2-544, N-{1-[4-((E)-2-methylcarbamoylvinyl)phenylcarbamoyl]cyclobutyl}-12-cyclohexyl-3-methoxy-6,7-dihydro-5-oxa-7a-azadibenzo[a,e]azulene-9-carboxamide], < 100 nM; with `CN(CCN1CCn2c(c(C3CCCCC3)c3ccc(C(=O)O)cc32)-c2ccccc21)C1CCOC1` (stereo not drawn) [Example 1-321, 13-cyclohexyl-5-{2-[N-methyl-N-(tetrahydrofuran-3-yl)amino]ethyl}-6,7-dihydro-5H-benzo[5,6][1,4]diazepino[7,1-a]indole-10-carboxylic acid], < 100 nM.

`COc1ccc2c(c1)CN(C(=O)OC(C)(C)C)CCn1c-2c(C2CCCCC2)c2ccc(C(=O)O)cc21` [Example 11-4, 6-tert-butoxycarbonyl-14-cyclohexyl-3-methoxy-5,6,7,8-tetrahydrobenzo[6,7][1,4]diazocino[8,1-a]indole-11-carboxylic acid]: the IC50 is < 100 nM. Regarding `O=C(O)c1ccc2c(C3CCCCC3)c3n(c2c1)CCN(CCN1CCCCCCCC1)c1ccccc1-3` [Example 1-155, 5-[2-(azonan-1-yl)ethyl]-13-cyclohexyl-6,7-dihydro-5H-benzo[5,6][1,4]diazepino[7,1-a]indole-10-carboxylic acid], the IC50 is < 100 nM.

As to `CNC(=O)c1ccc(-c2cnc(C(C)(C)NC(=O)c3ccc4c(C5CCCCC5)c5n(c4c3)CCOc3cc(OC)ccc3-5)[nH]2)cc1` [Example 2-547, N-{1-methyl-1-[5-(4-methylcarbamoylphenyl)-1H-imidazol-2-yl]ethyl}-12-cyclohexyl-3-methoxy-6,7-dihydro-5-oxa-7a-azadibenzo[a,e]azulene-9-carboxamide], the IC50 was < 100 nM.

Take `O=C(N[C@@H](Cc1ccc(O)cc1)C(=O)O)c1ccc2c(C3CCCCC3)c3n(c2c1)CCOc1ccccc1-3` [Example 2-180, (S)-2-[(12-cyclohexyl-6,7-dihydro-5-oxa-7a-azadibenzo[a,e]azulene-9-carbonyl)amino]-3-(4-hydroxyphenyl)propionic acid]: the IC50 was < 100 nM. On the same count and under the same terms, for `Cc1ccc2c(c1)N(CC(=O)N1CCCOCC1)CCn1c-2c(C2CCCCC2)c2ccc(C(=O)O)cc21` [Example 1-476, sodium salt of 13-cyclohexyl-3-methyl-5-[2-(1,4-oxazepan-4-yl)-2-oxoethyl]-6,7-dihydro-5H-benzo[5,6][1,4]diazepino[7,1-a]indole-10-carboxylic acid] the value was < 100 nM; for `CCCC1CCCN(CCN2CCn3c(c(C4CCCCC4)c4ccc(C(=O)O)cc43)-c3ccc(Cl)cc32)C1` (stereo not drawn) [Example 1-267, 3-chloro-13-cyclohexyl-5-[2-(3-propylpiperidin-1-yl)ethyl]-6,7-dihydro-5H-benzo[5,6][1,4]diazepino[7,1-a]indole-10-carboxylic acid dihydrochloride], < 100 nM; for `CC(C)(C)OC(=O)N[C@H](COc1ccc2c(c1)OCCn1c-2c(C2CCCCC2)c2ccc(C(=O)O)cc21)Cc1ccccc1` [Example 2-41, 3-((S)-2-tert-butoxycarbonylamino-3-phenylpropoxy)-12-cyclohexyl-6,7-dihydro-5-oxa-7a-azadibenzo[a,e]azulene-9-carboxylic acid], < 100 nM.
